Tests used:
Assay type in all cases: cell-based, murine
COX-2 = test: Western blot of LPS-induced COX-2 expression in BV-2 cells
Method: (§1) BV-2 cells were seeded in a 6-well plate at a density of 6 × 10^5 cells/well and exposed to LPS (100 ng/mL) in the presence or absence of compound 3 for required time. After treatment, cells were collected and lysed in cell lysis buffer (50 mM Tris–HCl, pH 8.0, 0.1% SDS, 150 mM NaCl, 1% NP-40, 0.02% sodium azide, 0.5% sodium deoxycholate, 100 µg/mL PMSF, and […]) for 24 h at 4 °C. The protein content was measured using a Bradford assay. Equal amounts of protein (30 µg) were separated using SDS-PAGE and transferred to a nitrocellulose membrane. […]
(§2) Fig. 2 Effect of compound 3 on LPS-induced iNOS and COX2 expression in BV-2 cells. […] Similarly, LPS activation was made for 24 h as chronic BV2 activation and the iNOS and COX-2 expression was measured (d). α-Tubulin was used as the loading control. […] After 24 h, the culture medium was subsequently collected to measure the quantity of PGE2 (e), IL-6 (f), and TNF-α (g) using ELISA analysis. […]

N2a cells = test: Annexin V/PI staining (FACS) of N2a cells given conditioned media from BV-2 cells; details: CM of compound at each concentration tested (5, 10, 20 µM)
Method: An annexin V/PI apoptosis kit was used in accordance with the manufacturer’s instructions to quantify the percentage of cells undergoing apoptosis. First, BV-2 cells were incubated for 24 h with 5, 10, and 20 µM of compound 3 or LPS (100 ng/mL). Then, N2a cells were treated with the supernatant of the treated BV-2 cells and incubated. After 24 h, the cells were collected, washed twice with cold PBS, and re-suspended in binding buffer at a concentration of […]. Annexin V-FITC (5 µL) and PI (10 µL) were added, and the cells were incubated for 15 min at room temperature in the dark. Following incubation, 200 µL of binding buffer was added, and the cells were immediately analyzed by flow cytometry (FACSAriaIII; BD Biosciences, Franklin Lakes, NJ, USA). The flow cytometric analysis was performed using the Cell Quest software (BD Biosciences). The annexin V+/PI− cells and annexin V−/PI+ cells were used to identify apoptotic cells and necrotic cells, respectively. The procedure was repeated three times for each sample.
Fig. 4 Neuroprotection of compound 3 in LPS-activated microglia in N2a cells. […] An annexin V/PI apoptosis kit was used to quantify the percentage of cells undergoing apoptosis and necrosis (x-axis, annexin V; y-axis, PI) by using FACS analysis. […]

iNOS = test: Western blot of LPS-induced iNOS expression in BV-2 cells
Method: as §1, §2

IL-6 = test: ELISA of IL-6 in LPS-activated BV-2 culture medium; details: LPS 24 h
Method: (§3) To measure TNF-α, IL-6, and PGE2, BV-2 cells were seeded in a 24-well plate at a density of 3 × 10^5 cells/well. The cells were treated with LPS (100 ng/mL) in the presence or absence of compound 3 for 24 h, and the media was collected and centrifuged. IL-6, TNF-α, and PGE2 produced in microglial culture supernatants […] were measured by competitive enzyme immunoassay kits (R&D systems, Minneapolis, MN, USA) in accordance with the manufacturer’s protocol.
(§4) Fig. 2 Effect of compound 3 on LPS-induced iNOS and COX2 expression in BV-2 cells. BV-2 cells were pretreated with various concentrations (5, 10, and 20 µM) of compound 3 for 30 min and activated with 100 ng/mL LPS. After 6 h, the cells were collected for analysis of iNOS and COX-2 expression using western blot analysis (a–c). Similarly, LPS activation was made for 24 h as chronic BV2 activation and the iNOS and COX-2 expression was measured (d). α-Tubulin was used as the loading control. The densitometric analysis of bands was performed as described in the methods section. After 24 h, the culture medium was subsequently collected to measure the quantity of PGE2 (e), IL-6 (f), and TNF-α (g) using ELISA analysis. […]

BV2 cells = test: β-amyloid induced BV2 cell cytotoxicity
Text: Here, we have investigated whether the compound 3 has any direct protective effects on microglia and neurons against LPS and TNF-α induced direct toxicity. As the aim of this study is to check the effectiveness of compound 3 against neurodegenerative conditions, here we checked the effect of this compound to protect microglial cells against β-amyloid induced cytotoxicity as shown in Fig. 5a. […] LPS treatment was unable to induce cellular toxicity to N2a cells (Fig. 5b). […] Compound 3 mediated neuroprotection in N2a cells is due to the inhibition of proinflammatory cytokines produced by LPS activated microglia.
Fig. 5 Cytoprotection of compound 3 in β-amyloid induced BV2 cell and LPS and TNF-α induced N2a cell toxicity

PGE2 = test: ELISA of PGE2 in LPS-activated BV-2 culture medium; details: 5, 10 and 20 µM, LPS 24 h
Method: as §3, §4

[1] = 5, 10 and 20 µM, 30 min pretreatment, LPS 100 ng/mL 6 h

Structure (SMILES): COc1cc(/C=C/C=N/N=C/C=C/c2ccc(O)c(OC)c2)ccc1O [Compound 3, 4,4′-(1E,1′E,3E,3′E)-3,3′-(hydrazine-1,2-diylidene)bis(prop-1-ene-1-yl-3-ylidene)bis(2-methoxyphenol)]
- Expression of COX-2 (COX-2; [1]): significantly reduced
- LPS induced COX-2 activation, chronic (COX-2; 24 h chronic LPS activation): dramatically rescued
- Concentration of apoptotic and necrotic N2a cells (N2a cells): decrease
- Expression of iNOS (iNOS; [1]): significantly reduced
- LPS induced iNOS activation, chronic (iNOS; 24 h chronic LPS activation): dramatically rescued
- IL-6 secretion (IL-6; 20 µM): noticeable activity
- IL-6 secretion (IL-6; 5 and 10 µM): did not significantly inhibit
- Microglial cell death against β-amyloid (BV2 cells): significantly prevented
- LPS-activated PGE2 production (PGE2): reduced

From publication PMC5745756, “N,N-disubstituted azines attenuate LPS-mediated neuroinflammation in microglia and neuronal apoptosis via inhibiting MAPK signaling pathways” (BMC Neuroscience, 2017)
